{"source": "paper PMC6027146", "about": "“Synthesis and Structure-Activity Relationships of (−)-cis-N-Normetazocine-Based LP1 Derivatives” (Pharmaceuticals, 2018)", "key": {"rat-DOR": {"biological_target": "T1, rat-DOR (Rattus norvegicus, UniProt P33533)", "T1 construct": "expressed in transfected cells", "assay": "Radioligand competition binding, [3H]-DPN, HEK293 membranes, DOR", "conditions": "[3H]-DPN displacement; means ± SEM of three experiments in duplicate; read-out: Ki (μM) ± SEM DOR", "protocol": "(§1) All synthesized compounds were tested in vitro by radioligand competition binding using [^3H]-diprenorphine ([^3H]-DPN) to measure the affinity for opioid receptor subtypes in membranes from HEK293 cells stably expressing either MOR, DOR, or KOR, as previously described.\n(§2) Confluent monolayers of HEK293 (human embryonic kidney 293) cells stably expressing rat-MOR, rat-DOR, or human-KOR were harvested, collected by centrifugation at 1500 rpm for 5 min, and washed once with phosphate-buffered saline (PBS) at pH 7.5. Membranes from cell pellets were carried out as described by Georgoussi and Zioudrou (1993) and Papakonstantinou et al. (2015). Briefly, cell pellets were resuspended in ice-cold membrane buffer (10 mM Tris-HCl, pH 7.5 and 0.1 mM EDTA), homogenized, and centrifuged at 2,000 g for 3 min at 4 °C. Supernatants were further centrifuged at 45,000 rpm for 30 min at 4 °C. The membrane pellet was resuspended in ice-cold membrane buffer at a protein concentration of approximately 1 mg/mL and stored in aliquots at −70 °C. Protein concentration was determined according to Bradford assay.\n(§3) In the experiments designed to define compound affinity and selectivity for MOR, DOR, and KOR, membranes expressing each of these opioid receptors ([…]) were incubated at 30 °C for 45 min in buffer containing 50 mM Tris-HCl, pH 7.5, 100 mM NaCl, and 10 mM MgCl2 as described by Georgoussi et al. […] The ability of compounds 10–16 to displace [^3H]-DPN (3.75 nM) binding to the opioid receptors was assessed as described by Morou And Georgoussi (2005). Non-specific binding was measured in the presence of […] Naloxone. The reaction was stopped by rapid filtration and three washes in ice-cold 50 mM Tris-HCl, pH 7.4, through GF/C filters (Whatman, Maidstone, UK) using an automated cell harvester (Brandel Inc., Gaithersburg, MD, USA). The radioactivity was measured by liquid scintillation counting (Liquid Scintillation Analyzer, Packard).\n(§4) Analysis of the binding data was performed using the Origin 7.5 software (OriginLab Corporation, Northampton, MA, USA). In calcium mobilization experiments, data were analyzed by non-linear curve fitting equation, using GraphPad 5.0 software. […] Ligand efficacy was expressed as intrinsic activity (α), calculated as the ratio between the Emax of the ligand and that of the respective standards. Calcium mobilization data were expressed as FIU (fluorescence intensity units) in percent, over the baseline. Agonist potencies are given as pEC50 (the negative logarithm to base 10 of the molar concentration of an agonist that produces 50% of the maximal possible effect, Emax). Concentration response curves to agonists were fitted with the following equation: Effect = baseline + (Emax − baseline)/(1+10^(LogEC50 − X) ∗ HillSlope) where X is the agonist concentration."}, "human-KOR": {"biological_target": "human-KOR (Homo sapiens, UniProt P41145)", "assay": "Radioligand competition binding, [3H]-DPN, HEK293 membranes, KOR", "parameters": "expressed in transfected cells", "conditions": "[3H]-DPN displacement; means ± SEM of three experiments in duplicate; read-out: Ki (μM) ± SEM KOR", "protocol": "as §1, §2, §3, §4"}, "recombinant human MOR": {"biological_target": "T2, recombinant human MOR (Homo sapiens, UniProt P35372)", "T2 construct": "expressed in transfected cells; gift of Dr. Larry Toll (SRI International); infected with a retrovirus for Gαqi5", "assay": "Calcium mobilization assay, CHO-MOR cells expressing Gαqi5", "format": "cell-based"}}}
{"smiles": "C[C@H]1[C@H]2Cc3ccc(O)cc3[C@]1(C)CCN2CCC(=O)Nc1ccccc1", "note": "[LP1, 3-[(2R,6R,11R)-8-hydroxy-6,11-dimethyl-1,4,5,6-tetrahydro-2,6-methano-3-benzazocin-3(2H)-yl]-N-phenylpropanamide, reference compound]", "values": [{"measurement": "Ki", "setting": "rat-DOR", "result": "0.033 ± 0.02", "unit": "µM"}, {"measurement": "Ki", "setting": "human-KOR", "result": "7.5 ± 0.015", "unit": "µM"}, {"measurement": "EC50", "setting": "recombinant human MOR", "result": 97.7, "unit": "nM"}, {"measurement": "intrinsic activity (α) at MOR", "setting": "recombinant human MOR; ratio of Emax of ligand to that of the standard", "result": "0.40 ± 0.020"}]}
